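Compound exposure: 48 hours, 5 concentrations, 96-well plates. At the GI50, growth is halved.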 The source made the active and inactive calls. No stated cut-off is given here; in the data, active = GI50 up to about 1.1 µM and inactive = higher.
Experiments:
Test in all cases: growth of human tumour cells (NCI), 48 h
[1] = system: SF-539
[2] = system: NCI/ADR-RES
[3] = system: SW-620
[4] = system: MOLT-4
[5] = system: HOP-62
[6] = system: RXF 393
[7] = system: OVCAR-5
[8] = system: SF-268
[9] = system: HOP-92
[10] = system: A498
[11] = system: OVCAR-3
[12] = system: UO-31
[13] = system: RPMI-8226
[14] = system: Malme-3M
[15] = system: SNB-75
[16] = system: HCT-116
[17] = system: MDA-MB-435
[18] = system: HCT-15
[19] = system: IGROV-1

Row | Structure (SMILES) | GI50 [1] | GI50 [2] | GI50 [3] | GI50 [4] | GI50 [5] | GI50 [6] | GI50 [7] | GI50 [8] | GI50 [9] | GI50 [10] | GI50 [11] | GI50 [12] | GI50 [13] | GI50 [14] | GI50 [15] | GI50 [16] | GI50 [17] | GI50 [18] [µM] | GI50 [19]
1 | O=C(O)CCN(CCC(=O)O)c1ccc(/C=C2\SC(=S)NC2=O)cc1 | > 100 µM (inactive) | > 100 µM (inactive) | > 100 µM (inactive) | > 100 µM (inactive) | > 100 µM (inactive) | > 100 µM (inactive) | > 100 µM (inactive) | > 100 µM (inactive) | > 100 µM (inactive) | > 100 µM (inactive) | > 100 µM (inactive) | > 100 µM (inactive) | > 100 µM (inactive) | 1.48 µM (inactive) | > 100 µM (inactive) | > 100 µM (inactive) | > 100 µM (inactive) | > 100 | > 100 µM (inactive)
2 | C[C@@H]1[C@@H](C)C(c2ccccc2)O[Si]1(C(C)(C)C)C(C)(C)C (stereo not given in full) | 17 µM (inactive) | 18.1 µM (inactive) | 18.8 µM (inactive) | 16 µM (inactive) | 17.5 µM (inactive) | 17.1 µM (inactive) | 17.6 µM (inactive) | 25.2 µM (inactive) | 21.5 µM (inactive) | 16.6 µM (inactive) | 16.5 µM (inactive) | 17.2 µM (inactive) | 20.6 µM (inactive) | 9.71 µM (inactive) | 16 µM (inactive) | 15.5 µM (inactive) | 25.6 µM (inactive) | 23.1 | 16.7 µM (inactive)
3 | CC(=O)NC1=CC(=O)C=C(Cl)C1=O | > 100 µM (inactive) | > 100 µM (inactive) | 19 µM (inactive) | 22.2 µM (inactive) | > 100 µM (inactive) | 92.5 µM (inactive) | > 100 µM (inactive) | > 100 µM (inactive) | > 100 µM (inactive) | > 100 µM (inactive) | > 100 µM (inactive) | > 100 µM (inactive) | 22.6 µM (inactive) | 25.7 µM (inactive) | > 100 µM (inactive) | > 100 µM (inactive) | 17.9 µM (inactive) | > 100 | > 100 µM (inactive)
4 | CC(C)C[S+]1C2=C(CC(C)(C)CC2=O)[N-]c2ccccc21 (stereo not given) | > 100 µM (inactive) | > 100 µM (inactive) | > 100 µM (inactive) | 67.8 µM (inactive) | > 100 µM (inactive) | > 100 µM (inactive) | > 100 µM (inactive) | > 100 µM (inactive) | > 100 µM (inactive) | > 100 µM (inactive) | > 100 µM (inactive) | > 100 µM (inactive) | > 100 µM (inactive) | > 100 µM (inactive) | > 100 µM (inactive) | > 100 µM (inactive) | > 100 µM (inactive) | > 100 | > 100 µM (inactive)
5 | O=P(O)(O)CN1CCNCCN(CP(=O)(O)O)CCN(CP(=O)(O)O)CCNCC1 | > 100 µM (inactive) | > 100 µM (inactive) | > 100 µM (inactive) | > 100 µM (inactive) | > 100 µM (inactive) | > 100000 µM (inactive) | > 100 µM (inactive) | > 100000 µM (inactive) | > 100 µM (inactive) | 93.5 µM (inactive) | > 100 µM (inactive) | > 100 µM (inactive) | > 100 µM (inactive) | 0.296 µM (active) | 24.4 µM (inactive) | 54600 µM (inactive) | > 100 µM (inactive) | > 100 | 65900 µM (inactive)
6 | O=C(CN1c2ccccc2Sc2ccccc21)n1cnc2ccccc21 | > 100 µM (inactive) | 97.5 µM (inactive) | > 100 µM (inactive) | 51.4 µM (inactive) | > 100 µM (inactive) | > 100 µM (inactive) | 80 µM (inactive) | > 100 µM (inactive) | 30.6 µM (inactive) | 45.3 µM (inactive) | 62.8 µM (inactive) | 75.9 µM (inactive) | 90.4 µM (inactive) | 74.8 µM (inactive) | > 100 µM (inactive) | > 100 µM (inactive) | > 100 µM (inactive) | 99.8 | > 100 µM (inactive)
7 | CCC(=O)/C=C/c1ccccc1 | 53 µM (inactive) | 47.6 µM (inactive) | 32.5 µM (inactive) | 26 µM (inactive) | > 100 µM (inactive) | 73.3 µM (inactive) | > 100 µM (inactive) | 94 µM (inactive) | > 100 µM (inactive) | 48.9 µM (inactive) | 67.6 µM (inactive) | 76.6 µM (inactive) | 54.3 µM (inactive) | > 100 µM (inactive) | > 100 µM (inactive) | 31.3 µM (inactive) | 33.8 µM (inactive) | 35.9 | 76.9 µM (inactive)
8 | COC(=O)c1ccc(C)cc1/C=C1\Cc2ccc(C)cc2C1=O | 12.4 µM (inactive) | 29.4 µM (inactive) | 19.5 µM (inactive) | 13.2 µM (inactive) | 15.5 µM (inactive) | 14.7 µM (inactive) | 15.9 µM (inactive) | 14.2 µM (inactive) | 15.5 µM (inactive) | 19.1 µM (inactive) | 6.52 µM (inactive) | 11 µM (inactive) | 11.8 µM (inactive) | 10.2 µM (inactive) | 5.64 µM (inactive) | 11.1 µM (inactive) | 4.28 µM (inactive) | 13 | 10.4 µM (inactive)
9 | Cc1cc(S(=O)(=O)Nc2nc(-c3ccccn3)n[nH]2)c(S)cc1Cl | 21.7 µM (inactive) | 6.5 µM (inactive) | 12.2 µM (inactive) | 22.7 µM (inactive) | 9.75 µM (inactive) | 17.4 µM (inactive) | 15.5 µM (inactive) | 17.7 µM (inactive) | 19 µM (inactive) | 16.9 µM (inactive) | 17.2 µM (inactive) | 2.67 µM (inactive) | 33.7 µM (inactive) | 18.1 µM (inactive) | 28.1 µM (inactive) | 16.1 µM (inactive) | 25.1 µM (inactive) | 5.68 | 25.3 µM (inactive)
10 | c1ccc2c(c1)-c1ccccc1C2N1CC2CCC(CC2)C1 | 24.1 µM (inactive) | 15.5 µM (inactive) | 22.1 µM (inactive) | 12.3 µM (inactive) | 25.2 µM (inactive) | 17.8 µM (inactive) | 18 µM (inactive) | 15.5 µM (inactive) | 17.5 µM (inactive) | 20.3 µM (inactive) | 20.4 µM (inactive) | 28.8 µM (inactive) | 20.4 µM (inactive) | 10.1 µM (inactive) | 27 µM (inactive) | 20.7 µM (inactive) | 25.1 µM (inactive) | 16.8 | 20.7 µM (inactive)
11 | O=S(=O)(Nc1nc2ccccc2nc1Nc1ccc2ccccc2c1)c1ccccc1 | 15.3 µM (inactive) | 5.73 µM (inactive) | 7.38 µM (inactive) | 5.24 µM (inactive) | 10.7 µM (inactive) | 20.4 µM (inactive) | 26.4 µM (inactive) | 17.9 µM (inactive) | 5.06 µM (inactive) | 28.3 µM (inactive) | 1.87 µM (inactive) | 3.61 µM (inactive) | 2.44 µM (inactive) | 4.53 µM (inactive) | 26.5 µM (inactive) | 7.8 µM (inactive) | 10.8 µM (inactive) | 11.1 | 9.59 µM (inactive)
12 | O=C(Nc1nc(C23CC4CC(CC(C4)C2)C3)cs1)c1cc2cc([N+](=O)[O-])ccc2oc1=O | > 100 µM (inactive) | 35.7 µM (inactive) | 33.6 µM (inactive) | 57.8 µM (inactive) | 39.7 µM (inactive) | 19.2 µM (inactive) | > 100 µM (inactive) | 26.2 µM (inactive) | 54.8 µM (inactive) | 36.3 µM (inactive) | 73.3 µM (inactive) | > 100 µM (inactive) | > 100 µM (inactive) | 46.2 µM (inactive) | 20.3 µM (inactive) | 37 µM (inactive) | 73.8 µM (inactive) | 85.1 | 45.3 µM (inactive)
13 | O=C1NN=C(c2c[nH]c3ccccc23)CC1NCc1ccccc1 (stereo not given) | > 100 µM (inactive) | > 100 µM (inactive) | > 100 µM (inactive) | > 100 µM (inactive) | > 100 µM (inactive) | > 100 µM (inactive) | > 100 µM (inactive) | > 100 µM (inactive) | > 100 µM (inactive) | > 100 µM (inactive) | > 100 µM (inactive) | > 100 µM (inactive) | > 100 µM (inactive) | > 100 µM (inactive) | > 100 µM (inactive) | > 100 µM (inactive) | > 100 µM (inactive) | > 100 | 1.01 µM (active)
14 | Cc1cc(S(=O)(=O)Nc2nnc3c(Cl)cc(C(F)(F)F)cn23)c(S)cc1Cl | 35.7 µM (inactive) | > 80.4 µM (inactive) | > 68.4 µM (inactive) | 75.9 µM (inactive) | 54.5 µM (inactive) | > 100 µM (inactive) | > 100 µM (inactive) | > 79.3 µM (inactive) | > 100 µM (inactive) | > 100 µM (inactive) | 49.9 µM (inactive) | 30.2 µM (inactive) | > 100 µM (inactive) | 91 µM (inactive) | 4.88 µM (inactive) | 34.8 µM (inactive) | 45.5 µM (inactive) | 58.1 | 50.5 µM (inactive)
15 | COc1cc(OC)cc(-c2cc(=O)c3c(OC)c(OC)c(OC)c(OC)c3o2)c1 | 80 µM (inactive) | 29.8 µM (inactive) | 35.7 µM (inactive) | 18.3 µM (inactive) | 32.6 µM (inactive) | 18.2 µM (inactive) | 47.3 µM (inactive) | 29.6 µM (inactive) | 16.7 µM (inactive) | 23 µM (inactive) | 18.8 µM (inactive) | 10.8 µM (inactive) | 16.9 µM (inactive) | 31.6 µM (inactive) | 20 µM (inactive) | 31.3 µM (inactive) | 32.8 µM (inactive) | 33.3 | 32.2 µM (inactive)
